This assay deals with Non-receptor tyrosine-protein kinase TYK2 (Homo sapiens, UniProt P29597).

pIC50: −log10 of the molar value.

The record followed here is ChEMBL document CHEMBL5505972, “Design, synthesis and evaluation of C-5 substituted pyrrolopyridine derivatives as potent Janus Kinase 1 inhibitors with excellent selectivity” (Eur J Med Chem, 2024).

Chain of Non-receptor tyrosine-protein kinase TYK2 (P29597 whole entry): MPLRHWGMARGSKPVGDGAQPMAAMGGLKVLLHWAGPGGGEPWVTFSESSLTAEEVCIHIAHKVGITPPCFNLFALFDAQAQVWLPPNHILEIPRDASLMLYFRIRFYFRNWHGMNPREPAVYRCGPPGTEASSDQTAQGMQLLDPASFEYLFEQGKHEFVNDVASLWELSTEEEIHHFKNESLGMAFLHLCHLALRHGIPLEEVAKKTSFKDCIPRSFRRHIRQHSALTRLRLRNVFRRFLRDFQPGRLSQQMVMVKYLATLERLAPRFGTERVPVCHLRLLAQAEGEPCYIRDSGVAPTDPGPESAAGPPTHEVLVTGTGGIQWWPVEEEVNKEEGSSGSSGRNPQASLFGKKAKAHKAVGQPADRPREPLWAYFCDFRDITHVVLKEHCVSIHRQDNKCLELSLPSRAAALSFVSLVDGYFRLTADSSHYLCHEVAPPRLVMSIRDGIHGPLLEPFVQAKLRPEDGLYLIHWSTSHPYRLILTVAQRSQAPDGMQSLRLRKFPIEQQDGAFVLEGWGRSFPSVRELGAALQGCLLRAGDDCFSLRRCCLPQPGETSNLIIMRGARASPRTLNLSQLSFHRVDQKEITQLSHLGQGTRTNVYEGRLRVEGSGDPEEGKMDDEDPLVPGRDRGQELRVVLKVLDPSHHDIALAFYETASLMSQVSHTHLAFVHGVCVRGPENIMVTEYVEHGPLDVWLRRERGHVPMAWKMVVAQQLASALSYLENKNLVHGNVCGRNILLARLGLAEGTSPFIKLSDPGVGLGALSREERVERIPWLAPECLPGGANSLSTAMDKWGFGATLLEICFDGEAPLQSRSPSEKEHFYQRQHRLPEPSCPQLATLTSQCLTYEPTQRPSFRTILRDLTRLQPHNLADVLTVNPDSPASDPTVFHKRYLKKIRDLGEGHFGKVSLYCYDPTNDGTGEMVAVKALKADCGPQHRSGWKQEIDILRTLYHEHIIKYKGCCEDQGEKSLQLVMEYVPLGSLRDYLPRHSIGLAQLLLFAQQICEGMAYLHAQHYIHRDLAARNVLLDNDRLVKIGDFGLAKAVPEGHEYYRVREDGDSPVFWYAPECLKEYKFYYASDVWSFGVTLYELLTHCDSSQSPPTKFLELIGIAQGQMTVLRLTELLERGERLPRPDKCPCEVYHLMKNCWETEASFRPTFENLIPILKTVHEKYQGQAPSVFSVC
Description: Inhibition of TYK2 (unknown origin) using GFP-STAT1 as substrate incubated for 1 hrs by TR-FRET assay

Compound `Clc1cccc(CN2CCC(Nc3c(-c4cc[nH]c4)cnc4[nH]ccc34)CC2)c1` showed a pIC50 below 5.00. Compound `COc1cccc(CN2CCC(Nc3c(-c4cn[nH]c4)cnc4[nH]ccc34)CC2)c1` showed a negative-log IC50 (pIC50) below 5.00. As for `Clc1ccccc1CN1CCC(Nc2c(-c3cc[nH]c3)cnc3[nH]ccc23)CC1`, the negative logarithm of the IC50 (pIC50) was below 5.00. As to `Clc1ccccc1CN1CCC(Nc2c(-c3cn[nH]c3)cnc3[nH]ccc23)CC1`, the negative logarithm of the IC50 (pIC50) is below 5.00. The compound `Clc1ccc(CN2CCC(Nc3c(-c4cc[nH]n4)cnc4[nH]ccc34)CC2)cc1` gave a pIC50 below 5.00. With `N#Cc1ccccc1CN1CCC(Nc2c(-c3cn[nH]c3)cnc3[nH]ccc23)CC1`, the negative logarithm of the IC50 (pIC50) was 8.39. Take `Clc1cccc(CN2CCC(Nc3c(-c4cc[nH]n4)cnc4[nH]ccc34)CC2)c1`: the pIC50 is below 5.00.

On to `Clc1ccc(CN2CCC(Nc3c(-c4cc[nH]c4)cnc4[nH]ccc34)CC2)cc1`, for which the negative logarithm of the IC50 (pIC50) was below 5.00.

As for `N#Cc1cccc(CN2CCC(Nc3c(-c4cc[nH]c4)cnc4[nH]ccc34)CC2)c1`, the negative logarithm of the IC50 (pIC50) is below 5.00. Regarding `COc1cccc(CN2CCC(Nc3c(-c4cc[nH]n4)cnc4[nH]ccc34)CC2)c1`, the negative logarithm of the IC50 (pIC50) was below 5.00. Turning to `N#Cc1cccc(CN2CCC(Nc3c(-c4cc[nH]n4)cnc4[nH]ccc34)CC2)c1`, the pIC50 is below 5.00. `N#Cc1ccc(CN2CCC(Nc3c(-c4cc[nH]c4)cnc4[nH]ccc34)CC2)cc1` gave a pIC50 below 5.00. As for `N#Cc1ccc(CN2CCC(Nc3c(-c4cc[nH]n4)cnc4[nH]ccc34)CC2)cc1`, the figure is below 5.00; as for `Clc1cccc(CN2CCC(Nc3c(-c4cn[nH]c4)cnc4[nH]ccc34)CC2)c1`, below 5.00.

Compound `N#Cc1ccc(CN2CCC(Nc3c(-c4cn[nH]c4)cnc4[nH]ccc34)CC2)cc1` showed a negative-log IC50 (pIC50) below 5.00. The compound `N#Cc1cccc(CN2CCC(Nc3c(-c4cn[nH]c4)cnc4[nH]ccc34)CC2)c1` gave a pIC50 below 5.00. As for `N#Cc1ccccc1CN1CCC(Nc2c(-c3cc[nH]c3)cnc3[nH]ccc23)CC1`, the figure is 5.38; as for `COc1cccc(CN2CCC(Nc3c(-c4cc[nH]c4)cnc4[nH]ccc34)CC2)c1`, 6.30; as for `N#Cc1ccccc1CN1CCC(Nc2c(-c3cc[nH]n3)cnc3[nH]ccc23)CC1`, 8.89.

In turn, `Clc1ccccc1CN1CCC(Nc2c(-c3cc[nH]n3)cnc3[nH]ccc23)CC1` showed a pIC50 below 5.00.

As for `Clc1ccc(CN2CCC(Nc3c(-c4cn[nH]c4)cnc4[nH]ccc34)CC2)cc1`, the negative logarithm of the IC50 (pIC50) was below 5.00.
